# Experimental data: patent US20110097310A1, “ANTI-AGING OR ANTIOXIDANT COMPOSITION CONTAINING PLANT STEM CELL LINE DERIVED FROM CAMBIUM OF PANAX GINSENG” (UNHWA CORPORATION, priority 2008, published 2011)
# Tested on: MMP-1
# Test: Inhibition of MMP-1 expression caused by UVB radiation in NHF cells
# Type: cell-based, human
# Details: NHF(p6), 40 mJ UVB, 48 hours, 10 uM positive control; Control UV = 230
# Description: When MMPs are increased due to exposure to UV radiation, the increased MMPs will degrade skin collagen to form skin wrinkles. Thus, in order to examine whether MMP-1 expression that increased due to UV radiation is inhibited by the extract or culture medium of the wild ginseng cambium-derived homogeneous cell line, the following test was carried out.
# NHF(p6) cells were dispensed in a 12-well plate at a density of 75,000 cells/well and starved for 24 hours. Then, the cells were radiated with 40 mJ of UVB and treated with varying concentrations of each of the samples for 48 hours. Then, an experiment was carried out using a kit (Amersham, RPN 2610). As a positive control, 10 μM retinoic acid was used.
compound,measurement,value
"CC1=C(/C=C/C(C)=C/C=C/C(C)=C/C(=O)O)C(C)(C)CCC1 [Retinoic acid, retinoic acid]","MMP-1 expression, % of control (No UV = 100)",85 % of control
